Test results reported in PubChem BioAssay AID1963825 (Molecular Pharmacology Branch, DTP, NCI, 2024).

Assay: Anticancer human tumor 997537-175-T-J1-PDC patient-derived colon adenocarcinoma cell line growth inhibition [POLQ]
Conditions: 997537-175-T-J1-PDC complex spheroid viability, combination with POLQ inhibitors; for IC50: curve of first compound; for viability, T/C: stronger effect = lower value
Procedure, shortened: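 Three-cell-type spheroids modelling solid tumor plus stroma served as the readout system; POL inhibitors were tested individually and in combination, concentration ranges set by clinical Cmax where known.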
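Note: luminescence signal used as a surrogate for viable cells; spheroids exposed to drugs for seven days before readout.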

Work on CC[C@@]1(O)C(=O)OCc2c1cc1n(c2=O)Cc2cc3c(CN(C)C)c(O)ccc3nc2-1 + COC1C(OC(N)=O)C(O)C(Oc2ccc3c(O)c(NC(=O)c4ccc(O)c(CC=C(C)C)c4)c(=O)oc3c2C)OC1(C)C yielded an IC50 (second compound 0.0316 µM) greater than 100 nM, an IC50 (second compound 0.1 µM) greater than 100 nM and an IC50 (second compound 0.316 µM) greater than 100 nM. The IC50 (second compound 1 µM) was greater than 100 nM, the IC50 (second compound 3.16 µM) was greater than 100 nM and the IC50 (second compound 10 µM) was greater than 100 nM. The viability, T/C (second compound 0.0316 µM, first compound 0.000316 µM) was 102%, the viability, T/C (second compound 0.0316 µM, first compound 0.001 µM) was 104% and the viability, T/C (second compound 0.0316 µM, first compound 0.00316 µM) was 110%. For the same compound, the viability, T/C (second compound 0.0316 µM, first compound 0.01 µM) was 103%, the viability, T/C (second compound 0.0316 µM, first compound 0.0316 µM) was 90.8% and the viability, T/C (second compound 0.0316 µM, first compound 0.1 µM) was 77.6%. The viability, T/C (second compound 0.1 µM, first compound 0.000316 µM) was 111%, the viability, T/C (second compound 0.1 µM, first compound 0.001 µM) was 101% and the viability, T/C (second compound 0.1 µM, first compound 0.00316 µM) was 111%. It also gave a viability, T/C (second compound 0.1 µM, first compound 0.01 µM) of 103%, a viability, T/C (second compound 0.1 µM, first compound 0.0316 µM) of 97.2% and a viability, T/C (second compound 0.1 µM, first compound 0.1 µM) of 68.6%. It also gave a viability, T/C (second compound 0.316 µM, first compound 0.000316 µM) of 96.2%, a viability, T/C (second compound 0.316 µM, first compound 0.001 µM) of 95% and a viability, T/C (second compound 0.316 µM, first compound 0.00316 µM) of 116%. It also gave a viability, T/C (second compound 0.316 µM, first compound 0.01 µM) of 102%, a viability, T/C (second compound 0.316 µM, first compound 0.0316 µM) of 105% and a viability, T/C (second compound 0.316 µM, first compound 0.1 µM) of 58.4%. For the same compound, the viability, T/C (second compound 1 µM, first compound 0.000316 µM) was 90.8%, the viability, T/C (second compound 1 µM, first compound 0.001 µM) was 92.3% and the viability, T/C (second compound 1 µM, first compound 0.00316 µM) was 99.6%. For the same compound, the viability, T/C (second compound 1 µM, first compound 0.01 µM) was 96.3%, the viability, T/C (second compound 1 µM, first compound 0.0316 µM) was 86% and the viability, T/C (second compound 1 µM, first compound 0.1 µM) was 76.8%. For the same compound, the viability, T/C (second compound 3.16 µM, first compound 0.000316 µM) was 101%, the viability, T/C (second compound 3.16 µM, first compound 0.001 µM) was 110% and the viability, T/C (second compound 3.16 µM, first compound 0.00316 µM) was 107%. The viability, T/C (second compound 3.16 µM, first compound 0.01 µM) was 92.6%, the viability, T/C (second compound 3.16 µM, first compound 0.0316 µM) was 81.7% and the viability, T/C (second compound 3.16 µM, first compound 0.1 µM) was 55.6%. It also gave a viability, T/C (second compound 10 µM, first compound 0.000316 µM) of 105%, a viability, T/C (second compound 10 µM, first compound 0.001 µM) of 105% and a viability, T/C (second compound 10 µM, first compound 0.00316 µM) of 107%. It also gave a viability, T/C (second compound 10 µM, first compound 0.01 µM) of 98.5%, a viability, T/C (second compound 10 µM, first compound 0.0316 µM) of 98.2% and a viability, T/C (second compound 10 µM, first compound 0.1 µM) of 70.2%.
